Experimental data taken from ChEMBL document CHEMBL1131976, “Syntheses of novel antitumor dihydroxanthone derivatives with inhibitory activity against DNA topoisomerase II” (Bioorg Med Chem Lett, 1999).

Key:
HCT-116 [1] = test: In vitro cytotoxic activity against human cancer cell line HCT116 by using MTT assay; type: functional, cell-based
K562 = test: In vitro cytotoxic activity against human cancer cell line K562 by using MTT assay; type: functional, cell-based
P388 = test: In vitro cytotoxic activity against murine cancer cell line P388 by using MTT assay; type: functional, cell-based; details: Mus musculus
DNA topoisomerase 2 = target: T1, DNA topoisomerase 2 (Drosophila melanogaster, UniProt P15348); test: In vitro inhibitory activity against topoisomerase II (Topo II) by using decatenation assay
T1 sequence (P15348 whole entry): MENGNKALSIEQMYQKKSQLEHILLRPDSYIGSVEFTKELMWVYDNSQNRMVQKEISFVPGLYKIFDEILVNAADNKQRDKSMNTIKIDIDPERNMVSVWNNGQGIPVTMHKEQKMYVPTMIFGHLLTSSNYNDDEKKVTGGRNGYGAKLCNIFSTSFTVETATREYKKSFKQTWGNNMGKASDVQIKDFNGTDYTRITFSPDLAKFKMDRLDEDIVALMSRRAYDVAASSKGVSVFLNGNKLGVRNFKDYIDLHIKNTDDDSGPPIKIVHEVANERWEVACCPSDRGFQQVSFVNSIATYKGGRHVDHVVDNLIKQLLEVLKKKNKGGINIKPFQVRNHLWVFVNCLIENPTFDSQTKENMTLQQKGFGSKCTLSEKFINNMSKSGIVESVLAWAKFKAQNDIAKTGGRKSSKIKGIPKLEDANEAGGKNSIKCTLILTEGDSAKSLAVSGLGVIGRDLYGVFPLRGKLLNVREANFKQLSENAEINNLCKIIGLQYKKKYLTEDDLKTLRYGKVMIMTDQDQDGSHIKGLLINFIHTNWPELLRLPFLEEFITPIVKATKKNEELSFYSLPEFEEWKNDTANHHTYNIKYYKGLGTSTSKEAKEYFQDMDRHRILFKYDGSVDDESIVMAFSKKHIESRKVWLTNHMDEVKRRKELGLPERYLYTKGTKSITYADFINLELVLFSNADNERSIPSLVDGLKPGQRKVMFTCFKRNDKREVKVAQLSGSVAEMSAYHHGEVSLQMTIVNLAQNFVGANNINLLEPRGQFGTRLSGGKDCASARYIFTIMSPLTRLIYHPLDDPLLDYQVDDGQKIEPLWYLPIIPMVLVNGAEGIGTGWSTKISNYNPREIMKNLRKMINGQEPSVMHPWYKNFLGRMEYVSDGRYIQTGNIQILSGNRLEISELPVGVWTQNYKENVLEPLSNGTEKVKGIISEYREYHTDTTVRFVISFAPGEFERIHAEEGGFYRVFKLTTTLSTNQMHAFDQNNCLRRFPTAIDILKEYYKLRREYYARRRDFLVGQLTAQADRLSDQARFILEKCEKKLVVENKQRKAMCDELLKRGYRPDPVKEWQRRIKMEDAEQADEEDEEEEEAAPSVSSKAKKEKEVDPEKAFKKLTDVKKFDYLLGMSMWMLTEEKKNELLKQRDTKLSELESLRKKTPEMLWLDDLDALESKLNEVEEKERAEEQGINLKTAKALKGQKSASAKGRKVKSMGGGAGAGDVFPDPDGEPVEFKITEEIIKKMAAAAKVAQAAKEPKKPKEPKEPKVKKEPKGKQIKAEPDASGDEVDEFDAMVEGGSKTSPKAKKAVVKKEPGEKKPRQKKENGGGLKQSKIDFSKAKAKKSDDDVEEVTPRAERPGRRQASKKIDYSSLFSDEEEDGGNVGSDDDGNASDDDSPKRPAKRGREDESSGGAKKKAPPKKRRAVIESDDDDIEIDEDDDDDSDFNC

DNA topoisomerase 1 = target: T2, DNA topoisomerase 1 (Mus musculus, UniProt Q04750); test: In vitro inhibitory activity against topoisomerase I (Topo I) by using relaxation assay
T2 sequence (Q04750 whole entry): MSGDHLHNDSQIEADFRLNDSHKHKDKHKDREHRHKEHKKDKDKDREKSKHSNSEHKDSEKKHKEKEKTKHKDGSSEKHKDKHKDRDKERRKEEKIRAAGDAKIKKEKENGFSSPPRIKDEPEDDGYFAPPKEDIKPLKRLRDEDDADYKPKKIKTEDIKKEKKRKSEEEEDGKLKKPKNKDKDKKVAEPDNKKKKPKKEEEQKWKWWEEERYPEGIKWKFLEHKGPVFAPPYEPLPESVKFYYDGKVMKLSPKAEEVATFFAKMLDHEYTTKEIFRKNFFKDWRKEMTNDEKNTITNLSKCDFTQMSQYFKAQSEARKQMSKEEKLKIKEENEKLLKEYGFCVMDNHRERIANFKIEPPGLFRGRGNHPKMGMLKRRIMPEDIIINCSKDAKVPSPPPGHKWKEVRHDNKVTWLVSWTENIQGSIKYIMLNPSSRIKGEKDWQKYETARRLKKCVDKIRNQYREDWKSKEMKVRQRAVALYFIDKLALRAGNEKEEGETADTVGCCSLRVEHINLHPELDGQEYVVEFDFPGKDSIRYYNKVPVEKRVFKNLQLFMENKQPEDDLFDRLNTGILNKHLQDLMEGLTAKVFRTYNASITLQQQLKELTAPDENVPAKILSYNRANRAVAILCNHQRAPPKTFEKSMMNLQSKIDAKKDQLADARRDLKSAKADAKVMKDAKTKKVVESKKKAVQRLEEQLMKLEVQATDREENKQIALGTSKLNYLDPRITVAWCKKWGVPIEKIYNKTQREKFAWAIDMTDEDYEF

Mus musculus [2] = test: In vivo antitumor activity against Colon 26 murine tumor model at a dose of 10 mg/kg administered intravenously; type: functional; details: route intravenous
Mus musculus [3] = test: In vivo antitumor activity against Colon 26 murine tumor model at a dose of 20 mg/kg administered intravenously; type: functional; details: route intravenous
HCT-116 [4] = test: In vitro cytotoxic activity against HCT116 human cancer cell line at 40 uM; IA means Inactive; type: functional, cell-based

Row | SMILES | IC50 (HCT-116 [1]) [nM] | IC50 (K562) [nM] | IC50 (P388) [nM] | IC50 (DNA topoisomerase 2) [nM] | IC50 (DNA topoisomerase 1) [nM] | Activity (Mus musculus [2]) [%] | Activity (Mus musculus [3]) [%] | IC50 (HCT-116 [4])
1 | Cc1cc(O)c2c(c1)O[C@@]1(C(=O)N(C)C)C(=CC=C[C@H]1O)C2=O | 790 | 980 | 150 | – | – | – | – | –
2 | Cc1cc(O)c2c(c1)O[C@@]13C(=O)N(C)[C@@H](CC=C1C2=O)[C@H]3O | 19600 | 6310 | – | > 300000 | > 300000 | – | – | –
3 | Cc1cc(O)c2c(c1)O[C@@]1(C(N)=O)C(=CC=C[C@H]1O)C2=O | 330 | 590 | 52 | 29000 | 63000 | 42 | – | –
4 | Cc1cc(O)c2c(c1)O[C@@]1(C(=O)N3CCCC3)C(=CC=C[C@H]1O)C2=O | 1640 | 1520 | 560 | – | – | – | – | –
5 | Cc1cc(O)c2c(c1)O[C@@]1(C(=O)NCCO)C(=CC=C[C@H]1O)C2=O | 7880 | 10600 | 2670 | 23000 | 102000 | – | – | –
6 | COC(=O)[C@]12Oc3cc(C)cc(O)c3C(=O)C1=CC=C[C@H]2O | 140 | 320 | 24 | 2200 | 172000 | – | 24 | –
7 | Cc1cc(O)c2c(=O)c3ccccc3oc2c1 | – | – | – | – | – | – | – | Not Active
8 | CNC(=O)[C@]12Oc3cc(C)cc(O)c3C(=O)C1=CC=C[C@H]2O | 1130 | 2260 | 240 | 132000 | > 300000 | – | – | –
